In patent publication US7238714B2, “Aryl or heteroaryl amide compounds” (Pfizer Japan, Inc., priority 2003, dated 2007):

Key:
hEP4 [1] = target: T1, hEP4 (Homo sapiens, UniProt P35408); experiment: cAMP assay in human EP4 transfectant (functional assay); type: cell-based; set-up: expressed in transfected cells; host or cells: HEK293 (hEP4 cells), selected with geneticin; conditions: vs 1 nM PGE2; for IC50: cAMP in HEK293 cells expressing human EP4
Description: cAMP Assay in Human EP4 Transfectant
HEK293 cells expressing human EP4 receptors (hEP4 cells) are maintained in DMEM containing 10% FBS and 500 μg/ml geneticin. For harvesting hEP4 cells, culture medium is aspirated and cells in 75 cm^2 flask are washed with 10 ml of phosphate buffered saline (PBS). Another 10 ml of PBS is added to the cells and incubated for 20 min at room temperature. Human EP4 cells are harvested by pipetting and centrifuged at 300×g for 4 min. Cells are resuspended in DMEM without neutral red at a density of 7×10^5 cells/ml containing 0.2 mM IBMX (PDE inhibitor), 1 nM PGE2 and test compounds in PCR-tubes, and incubated at 37° C. for 10 min. The reaction is stopped by heating at 100° C. for 10 min with thermal cycler. Concentration of cAMP in reaction mixtures is determined with SPA cAMP Kit (Amersham) or cAMP Screen™ (Applied Biosystems) according to the manufacture's instruction. • Reference: Eur. J. Pharmacol. 340 (1997) 227–241

hEP4 [2] = target: T1, hEP4; experiment: Human EP receptor cell membrane binding assay ([3H]-PGE2); set-up: expressed in transfected cells; membrane fraction; conditions: [3H]-PGE2 binding to membranes of human EP4/HEK293 transfectant; acidic and hypotonic buffer condition, MME buffer
Excerpt: Human EP Receptor Cell Membrane Binding Assay:
Stable Expression of Human EP1, 2, 3 and 4 Receptors in the Human Embryonic Kidney (HEK293) Cell Line
The cDNA clones of human EP1, 2, 3 and 4 receptors are obtained by polymerase chain reaction (PCR) from […] kidney or heart cDNA libraries (Clontech). Human embryonic kidney cells (HEK 293) are stably transfected with expression vectors for human EP1, 2, 3 and 4 receptors in according to the method described in the article; the journal of biological chemistry vol. 271 No. 39, pp 23642–23645.
Preparation of Membrane Fraction:
The EP1, 2, 3 and 4 transfectant are grown in Dulbecco's modified Eagle's medium containing 10% fetal bovine serum, 50 U/ml penicillin, 50 μg/ml streptomycin and 500 μg/ml G418 (selection medium) at 37° C. in a humidified atmosphere of 5% CO2 in air. For the membrane preparation, cells are harvested with phosphate buffered saline (PBS) and centrifuged at 400×g for 5 min. The pellet is suspended with child (4° C.) PBS containing 1/100 volume of protease inhibitor cocktail (SIGMA) (1 mM (4-(2-aminoethyl)-benzenesulfonyl fluoride (AEBSF)), 0.8 μM Aprotinin, 22 μM Leupeptin, 40 μM Bestatin, 15 μM Pepstatin A and 14 μM E-64). Cells are lysed with ultrasonic cell disrupter for 60-sec sonication. Then cell mixtures are centrifuged at 1,000×g for 10 minutes. The supernatant μs centrifuged at 160,000×g for 30 minutes at 4° C. The pellet is resuspended in assay buffer (10 mM 2-morpholinoeth-anesulfonic acid (MES)-KOH, 1 mM etylenediamine tetra-acetic acid (EDTA), 10 mM MgCl2, pH 6.0), and protein concentration is determined by Bradford method (Bio-Rad assay). This membrane preparation is stored at −80° C. freezer until use for binding assay.
[^3H]-PGE2 membrane binding assays are performed in the reaction mixture of 10 mM MES/KOH (pH6.0), 10 mM MgCl2, 1 mM EDTA, 1 nM [^3H]-PGE2 (Amersham TRK431, 164 Ci/mmol), 2˜10 μg of protein from membrane fraction (human EP1, 2, 3 and 4/HEK293 transfectant) and test compound (total volume is 0.1 ml in 96 well polypropylene plate). Incubation is conducted for 60 min at room temperature prior to separation of the bound and free radioligand by rapid filtration through glass fiber filters (Printed Filtermat B, 1205-404, glass fiber, double thickness, size 102×258 mm, Wallac inc., presoaked in 0.2% polyethylenimine). Filters are washed with assay buffer and the residual [^3H]-PGE2 bound to the filter is determined by liquid scintillation counter (1205 Betaplate™). Specific binding is defined as the difference between total binding and nonspecific binding which is determined in the presence of 10 μM PGE2.

T1 sequence (P35408 whole entry): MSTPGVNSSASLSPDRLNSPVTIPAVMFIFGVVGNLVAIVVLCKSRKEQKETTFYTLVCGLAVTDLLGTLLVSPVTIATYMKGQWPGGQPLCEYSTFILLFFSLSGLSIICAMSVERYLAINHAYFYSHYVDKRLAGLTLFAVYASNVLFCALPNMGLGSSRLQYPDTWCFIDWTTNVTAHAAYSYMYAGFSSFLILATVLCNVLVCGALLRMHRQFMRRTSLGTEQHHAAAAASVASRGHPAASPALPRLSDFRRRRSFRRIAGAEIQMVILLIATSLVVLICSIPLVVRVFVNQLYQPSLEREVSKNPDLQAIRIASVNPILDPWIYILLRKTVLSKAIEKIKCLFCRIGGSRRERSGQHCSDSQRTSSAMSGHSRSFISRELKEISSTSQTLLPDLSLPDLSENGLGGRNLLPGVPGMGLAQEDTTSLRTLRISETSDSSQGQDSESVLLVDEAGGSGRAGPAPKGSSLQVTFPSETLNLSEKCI

| Structure (SMILES) | IC50 (hEP4 [1]) [nM] | Ki (hEP4 [2]) [nM] | inhibition at 5 µM (hEP4 [1]; @ 5000 nM, read-out: functional assay human EP4 % Inh.) [%] |
| --- | --- | --- | --- |
| N#Cc1cnc(Oc2ccc(F)cc2)c(C(=O)NCc2ccc(C(=O)O)cc2)c1 [Example 57, 4-[({[5-CYANO-2-(4-FLUOROPHENOXY)PYRIDIN-3-YL]CARBONYL}AMINO)METHYL]BENZOIC ACID] | 1800 | 92 | 75 |
| O=C(NCc1ccc(-c2nn[nH]n2)cc1)c1cc(Cl)cnc1Oc1ccc(F)cc1 [Example 74, 5-CHLORO-2-(4-FLUOROPHENOXY)-N-[4-(2H-TETRAZOL-5-YL)BENZYL]NICOTINAMIDE] | 140 | 4 | – |
| O=C(NCc1ccc(-c2nn[nH]n2)cc1)c1cc(Cl)ccc1Oc1ccc(F)cc1 [Example 76, 5-CHLORO-2-(4-FLUOROPHENOXY)-N-[4-(2H-TETRAZOL-5-YL)BENZYL]BENZAMIDE] | 100 | 1.8 | – |
| O=C(O)c1ccc(CNC(=O)c2cc(C(F)(F)F)cnc2Oc2ccc(F)cc2)cc1 [Example 56, 4-[({[2-(4-FLUOROPHENOXY)-5-(TRIFLUOROMETHYL)PYRIDIN-3-YL]CARBONYL}AMINO)METHYL]BENZOIC ACID] | 820 | 20 | – |

These reach a lower IC50 (hEP4 [1]). Values come first.

| IC50 (hEP4 [1]) [nM] | Ki (hEP4 [2]) [nM] | inhibition at 5 µM (hEP4 [1]; @ 5000 nM, read-out: functional assay human EP4 % Inh.) [%] | Structure (SMILES) |
| --- | --- | --- | --- |
| 3.6 | 0.7 | – | C[C@H](NC(=O)c1cc(Cl)ccc1Cc1cccc(Cl)c1)c1ccc(C(=O)O)cc1 [Example 148, 4-((1S)-1-{[5-CHLORO-2-(3-CHLOROBENZYL)BENZOYL]AMINO}ETHYL)BENZOIC ACID] |
| 43 | 2.4 | – | C[C@H](NC(=O)c1cc(Cl)ccc1Oc1ccc(F)cc1)c1ccc(C(=O)O)cc1 [Example 68, 4-((1S)-1-{[5-CHLORO-2-(4-FLUOROPHENOXY)BENZOYL]AMINO}ETHYL)BENZOIC ACID] |
| 21 | 0.7 | – | C[C@H](NC(=O)c1cc(Cl)cnc1Oc1cccc(F)c1)c1ccc(C(=O)NS(=O)(=O)c2cccc(Cl)c2)cc1 [Example 79, 5-CHLORO-N-{(1S)-1-[4-({[(3-CHLOROPHENYL)SULFONYL]AMINO}CARBONYL)PHENYL]ETHYL}-2-(3-FLUOROPHENOXY)NICOTINAMIDE] |
| 28 | 0.3 | – | C[C@H](NC(=O)c1cc(Cl)cnc1Oc1cccc(-c2nccs2)c1)c1ccc(C(=O)O)cc1 [Example 45, 4-{(1S)-[({5-CHLORO-2-[3-(1,3-THIAZOL-2-YL)PHENOXY]PYRIDIN-3-YL}CARBONYL)AMINO]ETHYL}BENZOIC ACID] |
| 20 | 0.7 | – | C[C@H](NC(=O)c1cc(Cl)cnc1Oc1ccc(F)c(F)c1)c1ccc(C(=O)O)cc1 [Example 55, 4-[(1S)-1-({[5-CHLORO-2-(3,4-DIFLUOROPHENOXY)PYRIDIN-3-YL]CARBONYL}AMINO)ETHYL]BENZOIC ACID] |
| 19 | 1 | – | C[C@H](NC(=O)c1cc(Cl)cnc1Oc1cccc(F)c1)c1ccc(C(=O)O)cc1 [Example 48, 4-[(1S)-1-({[5-CHLORO-2-(3-FLUOROPHENOXY)PYRIDIN-3-YL]CARBONYL}AMINO)ETHYL]BENZOIC ACID] |
